{"source": "ChEMBL document CHEMBL2046283", "about": "“Iotrochamides A and B, antitrypanosomal compounds from the Australian marine sponge Iotrochota sp” (Bioorg Med Chem Lett, 2012)", "key": {"[1]": {"test_system": "Trypanosoma brucei brucei", "assay": "Antitrypanosomal activity against Trypanosoma brucei brucei BS427 after 48 hrs by alamar blue assay", "format": "functional, organism-based", "details": "BS427, 48 h"}, "[2]": {"assay": "Growth inhibition of human HEK293 cells at 70 uM after 48 hrs by alamar blue assay relative to control", "format": "cell-based", "details": "read-out: GI"}, "[3]": {"assay": "Growth inhibition of human HEK293 cells at 50 uM after 48 hrs by alamar blue assay relative to control", "format": "cell-based", "details": "read-out: GI"}}}
{"smiles": "CO/C(=C\\c1ccccc1)C(=O)N[C@@H](Cc1c[nH]c2cc(Br)ccc12)C(=O)O", "note": "[IOTROCHAMIDES B]", "values": [{"measurement": "IC50", "setting": "[1]", "value": 3.4, "unit": "µM"}, {"measurement": "inhibition at 48 h, 70 µM", "setting": "[2]", "value": 100, "unit": "%"}]}
{"smiles": "CO/C(=C\\c1ccccc1)C(=O)N[C@@H](Cc1ccc(O)cc1)C(=O)O", "note": "[IOTROCHAMIDES A]", "values": [{"measurement": "IC50", "setting": "[1]", "value": 4.7, "unit": "µM"}, {"measurement": "inhibition at 48 h, 50 µM", "setting": "[3]", "value": 85, "unit": "%"}]}
